# PMC12193833, “Toxicity Assessment and Antifungal Potential of Copper(II) and Silver(I) Complexes with 1,10-Phenanthroline-5,6-dione Against Drug-Resistant Clinical Isolates of Cryptococcus gattii and Cryptococcus neoformans” (Journal of Fungi, 2025)
# Legend:
# [1] = test system: C. neoformans clinical isolates; assay: MIC/MFC of test compounds, microdilution; type: cell-based, Cryptococcus neoformans
# From the text: (§1) Six clinical isolates belonging to the Cryptococcus genus were obtained from patients who attended the Instituto Nacional de Infectologia Evandro Chagas (INI), Fundação Oswaldo Cruz (FIOCRUZ), and were kindly provided by Dr. Rodrigo Almeida-Paes (INI-FIOCRUZ). To comply with ethical standards and institutional agreements between UFRJ and FIOCRUZ, patient data were not disclosed. In this sense, the C. neoformans isolates were designated CFP00213 (213), CFP00223 (223), and CFP00350 (350), while the C. gattii isolates were labeled CFP00023 (23), CFP00025 (25), and CFP00027 (27). Before each experiment, an aliquot of the culture was transferred from Sabouraud dextrose agar (2% glucose, 1% peptone, and 0.5% yeast extract) to RPMI 1640 medium (Sigma-Aldrich, St. Louis, MO, USA), pH 7.2, buffered with 0.165 M MOPS (Sigma-Aldrich, St. Louis, MO, USA). RPMI medium induces the expression of capsular polysaccharides, the primary virulence factor of Cryptococcus cells. The cultures were incubated at 37 °C for 48 h to promote cell proliferation, stimulate metabolic activation, and enhance capsular development. Yeast cell counts were determined using a Neubauer chamber.
# (§2) Following MIC determination, the MFC was assessed by inoculating 10 µL from wells showing no visible fungal growth onto Sabouraud dextrose agar. […] To further support and strengthen the evidence of the anti-Cryptococcus activity of the Cu-phendione and Ag-phendione complexes, we additionally performed MIC/MFC assays using well-characterized standard reference strains: ATCC 28957, H99, T1444 (all C. neoformans), and R265 (C. gattii).
# [2] = test system: C. gattii clinical isolates; assay: MIC/MFC of test compounds, microdilution; type: cell-based, Cryptococcus gattii
# From the text: as §1, §2
# [3] = test system: Galleria mellonella larvae; assay: In vivo acute toxicity, single treatment; conditions: single inoculation, 125–1000 µM, 10 µL/larva, 37 °C
# Protocol: In this set of experiments, G. mellonella larvae weighing approximately 0.2–0.3 g and displaying clear, uniform coloration were used. The larvae were inoculated (10 µL/larva) using an insulin syringe (BD Ultra-Fine, Franklin Lakes, NJ, USA) at the last left proleg. […] We also assessed their coloration through visual analysis as an indicator of stress levels. Throughout the experiments, the larvae were maintained at 37 °C [19, 42]. Two distinct treatment protocols were designed to evaluate the effects of the test compounds on larval survivability, as detailed below.
# For the acute toxicity analysis, the test compounds were administered to the larvae in a single inoculation at concentrations ranging from 1000 to 125 μM. Each group consisted of 10 larvae, while the control group received only sterile PBS with 4% DMSO. […] The SI was calculated using the following equation: SI = G. mellonella CC50/Cryptococcus MIC.
# [4] = test system: C. gattii clinical isolates; assay: Susceptibility to clinically available antifungals, CLSI M27-A3 microdilution; type: cell-based; conditions: Cryptococcus gattii
# From the text: as §1
# (§3) The susceptibility profile was evaluated using the microdilution method in RPMI 1640 medium buffered with 0.165 M MOPS, following the M27-A3 protocol for yeasts established by the Clinical and Laboratory Standards Institute (CLSI). […] Each fungal isolate was classified as either wild-type or non-wild-type for each antifungal based on the epidemiological cutoff values provided in CLSI M59 ED3, 2020 [32].
# [5] = test system: C. neoformans clinical isolates; assay: as above; type: cell-based; conditions: Cryptococcus neoformans
# From the text: as §1, §3
# [6] = test system: six clinical Cryptococcus isolates; assay: Susceptibility to clinically available antifungals, all six isolates; type: cell-based, Cryptococcus neoformans and Cryptococcus gattii; conditions: across all six clinical Cryptococcus isolates
# From the text: as §1, §3
# G. mellonella = conditions: cited from earlier work
# G. mellonella larvae = test system: G. mellonella larvae; set-up: method as in PMID 32265890; conditions: cited from earlier work; for Mortality rate in G. mellonella larvae: 750 µg/mL; for Toxicity in G. mellonella larvae: up to 500 µg/mL, within 72 h
# [7] = 24 h, C. gattii isolate 23, 37 °C
# [8] = 24 h, C. gattii isolate 25, 37 °C
# [9] = 24 h, C. gattii isolate 27, 37 °C
# [10] = C. gattii isolate 23, value in brackets
# [11] = C. gattii isolate 25, value in brackets
# [12] = C. gattii isolate 27, value in brackets
# [13] = 24 h, C. neoformans isolate 213, 37 °C
# [14] = 24 h, C. neoformans isolate 223, 37 °C
# [15] = 24 h, C. neoformans isolate 350, 37 °C
# [16] = C. neoformans isolate 213, value in brackets
# [17] = C. neoformans isolate 223, value in brackets
# [18] = C. neoformans isolate 350, value in brackets
molecule,measurement,setting,value
"O.O.O.O.O.O.[Cu+2].[O-][Cl+3]([O-])([O-])[O-].[O-][Cl+3]([O-])([O-])[O-] [Cu(ClO4)2.6H2O, copper perchlorate]",MIC,[1]; C. neoformans isolate 213,>100/ND µM
same,MIC,[1]; C. neoformans isolate 223,>100/ND µM
same,MIC,[1]; C. neoformans isolate 350,>100/ND µM
same,MIC,[1]; all C. neoformans clinical isolates,no antifungal activity
same,MIC,[2]; C. gattii isolate 23,>100/ND µM
same,MIC,[2]; C. gattii isolate 25,>100/ND µM
same,MIC,[2]; C. gattii isolate 27,>100/ND µM
same,MIC,[2]; all C. gattii clinical isolates,no antifungal activity
same,Larval survival,[3],100%
"CC[C@H](C)C[C@H](C)CCCCCCCCC(=O)N[C@H]1C[C@@H](O)[C@@H](NCCN)NC(=O)[C@@H]2[C@@H](O)CCN2C(=O)[C@H]([C@H](O)CCN)NC(=O)[C@H]([C@H](O)[C@@H](O)c2ccc(O)cc2)NC(=O)[C@@H]2C[C@@H](O)CN2C(=O)[C@H]([C@@H](C)O)NC1=O [Caspofungin, caspofungin]",MIC,[4]; [7],> 8 µg/mL
same,MIC,[4]; [8],> 8 µg/mL
same,MIC,[4]; [9],> 8 µg/mL
same,MIC,[4]; [10],> 7.3 µM
same,MIC,[4]; [11],> 7.3 µM
same,MIC,[4]; [12],> 7.3 µM
same,MIC,[5]; [13],> 8 µg/mL
same,MIC,[5]; [14],> 8 µg/mL
same,MIC,[5]; [15],> 8 µg/mL
same,MIC,[5]; [16],> 7.3 µM
same,MIC,[5]; [17],> 7.3 µM
same,MIC,[5]; [18],> 7.3 µM
same,MIC,[6],> 8 µg/mL
same,Hemocyte density,G. mellonella,do not increase hemocyte density
"C[C@@H](c1ncncc1F)[C@](O)(Cn1cncn1)c1ccc(F)cc1F [Voriconazole, voriconazole]",MIC,[4]; [7],4 µg/mL
same,MIC,[4]; [8],2 µg/mL
same,MIC,[4]; [9],4 µg/mL
same,MIC,[4]; [10],11.4 µM
same,MIC,[4]; [11],5.72 µM
same,MIC,[4]; [12],11.4 µM
same,MIC,[5]; [13],0.5 µg/mL
same,MIC,[5]; [14],16 µg/mL
same,MIC,[5]; [15],2 µg/mL
same,MIC,[5]; [16],1.4 µM
same,MIC,[5]; [17],45.8 µM
same,MIC,[5]; [18],5.72 µM
same,MIC,[6],0.5 to 16 µg/mL
"OC(Cn1cncn1)(Cn1cncn1)c1ccc(F)cc1F [Fluconazole, fluconazole]",MIC,[4]; [7],32 µg/mL
same,MIC,[4]; [8],16 µg/mL
same,MIC,[4]; [9],16 µg/mL
same,MIC,[4]; [10],104 µM
same,MIC,[4]; [11],52.2 µM
same,MIC,[4]; [12],52.2 µM
same,MIC,[6],≥ 4 µg/mL
"O.O.O=C([O-])c1ccccc1C(=O)[O-].[Mn+2].c1cnc2c(c1)ccc1cccnc12 [[Mn(phthalic acid)(1,10-phenanthroline)(H2O)2]]",Mortality rate in G. mellonella larvae,G. mellonella larvae,40%
same,Toxicity in G. mellonella larvae,G. mellonella larvae,no toxicity
"{[Cu(3,6,9-trioxaundecanedioic acid)(1,10-phenanthroline)2]3H2O·EtOH}n",Mortality rate in G. mellonella larvae,G. mellonella larvae,60%
same,Toxicity in G. mellonella larvae,G. mellonella larvae,no toxicity
"[Ag+].[O-][Cl+3]([O-])([O-])[O-].c1cnc2c(c1)ccc1cccnc12.c1cnc2c(c1)ccc1cccnc12 [[Ag(1,10-phenanthroline)2]ClO4]",Toxicity in G. mellonella larvae,G. mellonella larvae,no toxicity
same,Galiomycin expression,G. mellonella,increased
same,RNA levels encoding transferrin and inducible metalloproteinase inhibitor protein (IMPI),G. mellonella,increased
